Results taken from patent US9353072B2, “Antimicrobial substituted thiazoles and methods of use” (Purdue Research Foundation, priority 2012, dated 2016).
≈ marks a conversion by molar mass, not a printed value. Entries after “also recorded” stand apart in the source; their conditions may differ. Where two headings read alike, the source gives them in different places. Values belong to the molecule of their own block, whether it stands above or below them.

Experiments:
MRSA USA800 = test: MIC broth microdilution, MRSA USA800; format: cell-based; settings: Staphylococcus aureus, Table 2, read-out: Minimum Inhibitory Concentration
Description: (§1) Determination of minimum inhibitory concentration (MIC). The MICs of the lead thiazole compound (compound 1a) and nine derivatives tested against all 18 MRSA strains were determined, in triplicate samples, using the broth microdilution method in accordance with the recommendations contained in the CLSI guidelines.

NRS107 = test: MIC/MBC broth microdilution, NRS107; format: cell-based; settings: Staphylococcus aureus
Description: as §1

VRSA (VRS10) = test: MIC/MBC broth microdilution, VRSA (VRS10); format: cell-based, Staphylococcus aureus; settings: for MIC: Staphylococcus aureus, read-out: Minimum Inhibitory Concentration
Description: as §1

NRS119 = test: MIC/MBC broth microdilution, NRS119; format: cell-based; settings: Staphylococcus aureus
Description: as §1

MRSA ATCC 43300 [1] = test: MIC/MBC broth microdilution, MRSA ATCC 43300; format: cell-based, Staphylococcus aureus; settings: Staphylococcus aureus
Outline: (§2)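 Broth microdilution following CLSI guidelines was used to determine MICs, with each strain tested in triplicate.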

MRSA NRS384 (USA300) = test: MIC/MBC broth microdilution, NRS384 (USA300); format: cell-based; settings: Staphylococcus aureus
Outline: as §2

NRS194 = test: MIC/MBC broth microdilution, NRS194; format: cell-based; settings: Staphylococcus aureus
Description: as §1

VISA LIM 3 (NRS37) = test: MIC/MBC broth microdilution, NRS37 (VISA LIM 3); format: cell-based; settings: Staphylococcus aureus
Description: as §1

MRSA USA400 (NRS123) = test: MIC/MBC broth microdilution, NRS123 (USA400); format: cell-based; settings: Staphylococcus aureus, Table 8, NRS123
Description: as §1

[2] = tested on: 18 different strains of MRSA and VRSA; test: MIC broth microdilution, panel of 18 MRSA and VRSA strains (summary statements); format: cell-based, Staphylococcus aureus; settings: 18 strains of MRSA and VRSA
Description: as §1

MRSA ATCC 43300 [3] = test: Flow cytometry with LIVE/DEAD Fixable Dead Cell Stain; format: cell-based, Staphylococcus aureus; settings: compound 1a at 4.0×MIC; lysostaphin positive control; 10 minutes at 37° C.
Description: Flow cytometry and LIVE/DEAD® Fixable Dead Cell Stain: The action of the lead compound on cell membrane permeability of MRSA was assayed using the LIVE/DEAD® Fixable Dead Cell Stain Kit (Invitrogen, Eugene, Oreg., USA) according to the manufacturer's instructions. […] Post-treatment cells were fixed with 3.7% formaldehyde; the cells were then screened with a Beckman Coulter FC500 flow cytometer.

MRSA USA500 (NRS385) = test: MIC/MBC broth microdilution, NRS385 (USA500); format: cell-based; settings: Staphylococcus aureus
Description: as §1

[4] = tested on: MRSA ATCC 700699 (NRS1, VISA); test: MIC/MBC broth microdilution, NRS1 (ATCC 700699); format: cell-based; settings: Staphylococcus aureus
Description: as §1

MRSA (USA300) = test: Time-kill assay; format: cell-based, Staphylococcus aureus; settings: 3.0×MIC; for bactericidal effect in time-kill assay: 12 hour incubation at 37° C.; for time to eliminate MRSA completely (reduce CFU to zero): MRSA (USA300)
Description: Time-kill assay. […] Viable CFU/mL was determined by serial dilution and plating on trypticase soy agar (TSA) (Becton, Dickinson and Company, Sparks, Md., USA) plates after 0, 2, 4, 6, 8, 10, and 12 hours of incubation at 37° C. to identify the time required to reduce the bacterial cell count by 3-log10.

MRSA USA100 = test: MIC broth microdilution, MRSA USA100; format: cell-based; settings: Staphylococcus aureus; Table 2; MRSA USA100; read-out: Minimum Inhibitory Concentration
Description: as §1

VISA HIP07256 (NRS19) = test: MIC/MBC broth microdilution, NRS19 (VISA HIP07256); format: cell-based; settings: Staphylococcus aureus
Description: as §1

MRSA USA700 = test: MIC broth microdilution, MRSA USA700; format: cell-based; settings: Staphylococcus aureus, Table 2, read-out: Minimum Inhibitory Concentration
Description: as §1

NRS108 = test: MIC broth microdilution, NRS108; format: cell-based; settings: Staphylococcus aureus, Table 2, read-out: Minimum Inhibitory Concentration
Description: as §1

[5] = tested on: murine macrophage cells (J774.A1); test: In vitro cytotoxicity analysis, MTS assay; format: cell-based; settings: 16 μM, 24 hours
Description: In vitro cytotoxicity analysis: Compounds were assayed at concentrations of 2 μM, 4 μM, 8 μM, and 16 μM against a macrophage cell line (J774.A1) to determine the potential toxic effect in vitro. Murine macrophage cells were cultured in Dulbeco's Modified Eagle Medium (Sigma-Aldrich, St. Louis, Mo., USA) with 10% Fetal Bovine Serum (USA Scientific, Inc.) at 37° C. with 5% CO2. Controls received DMSO alone at a concentration equal to that in drug-treated cell samples. The cells were incubated with the compounds in a 96-Well Plate at 37° C. and 5.0% CO2 for 24 hours prior to addition of the assay reagent MTS 3-(4,5-dimethylthiazol-2-yl)-5-(3-carboxymethoxyphenyl)-2-(4-sulfophenyl)-2H-tetrazolium) (Promega, Madison, Wis., USA). The reagent measures the succinate dehydrogenase mitochondrial activity as an indicator of cell viability and proliferation. Corrected absorbance readings (actual absorbance readings for each treatment subtracted from background absorbance) were taken using a kinetic ELISA microplate reader (Molecular Devices, Sunnyvale, Calif., USA). The quantity of viable cells after treatment with each compound was expressed as a percentage of the control, DMSO.

MRSA USA1000 = test: MIC broth microdilution, MRSA USA1000; format: cell-based; settings: Staphylococcus aureus, Table 2, read-out: Minimum Inhibitory Concentration
Description: as §1

MRSA USA200 = test: MIC broth microdilution, MRSA USA200; format: cell-based; settings: Staphylococcus aureus; Table 2; MRSA USA200; read-out: Minimum Inhibitory Concentration
Description: as §1

[6] = Table 2, MRSA USA300, read-out: Minimum Inhibitory Concentration
[7] = Table 2, VISA LIM 3, read-out: Minimum Inhibitory Concentration
[8] = Table 2, MRSA USA500, read-out: Minimum Inhibitory Concentration
[9] = Table 2, MRSA ATCC 700699, read-out: Minimum Inhibitory Concentration
[10] = Table 2, VISA HIP07256, read-out: Minimum Inhibitory Concentration
[11] = Table 2, read-out: Minimum Inhibitory Concentration

- MIC (MRSA USA800): 2.8 µg/mL (≈ 8.5 µM)
- MIC (NRS107; Table 8, read-out: MIC): 8 µM
- MIC (VRSA (VRS10); Table 7, VRSA (VRS10)): 4 µM
- MIC (NRS119; NRS 119 / VISA, Table 7, VISA (NRS119), read-out: Minimum Inhibitory Concentration): 4 µM
- MIC (NRS119; Table 8, NRS119, read-out: MIC): 8 µM
- MIC (MRSA ATCC 43300 [1]; Table 4, MRSA ATCC 43300, 64 μM down to 0.5 μM, 37° C., 19 hours, read-out: Minimum Inhibitory Concentration): 4 µM
- MIC (MRSA ATCC 43300 [1]; Table 7, MRSA (ATCC 43300), read-out: Minimum Inhibitory Concentration): 4 µM
- MIC (MRSA ATCC 43300 [1]; Table 8, ATCC 43300, read-out: MIC): 4 µM
- MIC (MRSA NRS384 (USA300); [6]): 1.4 µg/mL
- MIC (MRSA NRS384 (USA300); Table 5, MRSA NRS384 (USA300), 128 μM down to 1.0 μM, 37° C., 19 hours, read-out: Minimum Inhibitory Concentration): 4 µM
- MIC (MRSA NRS384 (USA300); Table 8, NRS384, read-out: MIC): 4 µM
- MIC (NRS194; Table 8, read-out: MIC): 4 µM
- MIC (VISA LIM 3 (NRS37); [7]): 1.4 µg/mL
- MIC (VISA LIM 3 (NRS37); Table 8, NRS37 (VISA), read-out: MIC): 8 µM
- MIC (MRSA USA400 (NRS123); read-out: MIC): 4 µM (≈ 1.32 µg/mL)
- concentration inhibiting growth (MIC), range over the strains tested [2]: 1.4 to 5.5 µg/mL
- MIC (MRSA USA500 (NRS385); [8]): 1.4 µg/mL
- MIC (MRSA USA500 (NRS385); Table 8, NRS385, read-out: MIC): 4 µM
- MIC [4, 9]: 1.4 µg/mL
- MIC ([4]; Table 7, VISA (NRS1), read-out: Minimum Inhibitory Concentration): 16 µM
- MIC ([4]; Table 8, NRS1 (VISA), triplicates, 20 hours, read-out: MIC): 4 µM
- MIC (MRSA USA100): 5.5 µg/mL (≈ 16.7 µM)
- MIC (VISA HIP07256 (NRS19); [10]): 1.4 µg/mL
- MIC (VISA HIP07256 (NRS19); Table 8, NRS19 (VISA), read-out: MIC): 4 µM
- MIC (MRSA USA700): 1.4 µg/mL (≈ 4.25 µM)
SMILES: CCCCc1ccc(-c2nc(C)c(/C(C)=N/NC(=N)N)s2)cc1 [Compound 1a]
- MBC (NRS107; Table 8, read-out: MBC): 8 µM (≈ 2.64 µg/mL)
- MBC (NRS119; Table 8, NRS119, read-out: MBC): 8 µM (≈ 2.64 µg/mL)
- MBC (MRSA ATCC 43300 [1]; Table 8, ATCC 43300, read-out: MBC): 4 µM (≈ 1.32 µg/mL)
- MBC (MRSA NRS384 (USA300); Table 8, NRS384, read-out: MBC): 4 µM (≈ 1.32 µg/mL)
- MBC (NRS194; Table 8, read-out: MBC): 4 µM (≈ 1.32 µg/mL)
- MBC (VISA LIM 3 (NRS37); Table 8, NRS37 (VISA), read-out: MBC): 8 µM (≈ 2.64 µg/mL)
- MBC (MRSA USA400 (NRS123); read-out: MBC): 4 µM (≈ 1.32 µg/mL)
- cells stained with the dye (MRSA ATCC 43300 [3]): 1.5%
- MBC (MRSA USA500 (NRS385); Table 8, NRS385, read-out: MBC): 4 µM (≈ 1.32 µg/mL)
- MBC ([4]; Table 8, NRS1 (VISA), read-out: MBC): 8 µM (≈ 2.64 µg/mL)
- bactericidal effect in time-kill assay (MRSA (USA300)): bactericidal
- time to eliminate MRSA completely (reduce CFU to zero) (MRSA (USA300)): within two hours
- MBC (VISA HIP07256 (NRS19); Table 8, NRS19 (VISA), read-out: MBC): 8 µM (≈ 2.64 µg/mL)

- MIC (NRS108): 1.1 µg/mL (≈ 3.2 µM)
- MIC (MRSA USA800): 0.5 µg/mL (≈ 1.46 µM)
- MIC (NRS107; [11]): 0.5 µg/mL
- MIC (NRS119; Table 2, NRS119, read-out: Minimum Inhibitory Concentration): 1.1 µg/mL
- MIC (MRSA ATCC 43300 [1]; Table 2, MRSA ATCC 43300, read-out: Minimum Inhibitory Concentration): 0.8 µg/mL
- MIC (NRS194; [11]): 1.1 µg/mL
- MIC (VISA LIM 3 (NRS37); [7]): 0.5 µg/mL
- MIC (MRSA USA500 (NRS385); [8]): 1.1 µg/mL
- MIC [4, 9]: 0.5 µg/mL
- MIC (MRSA USA700): 1.1 µg/mL (≈ 3.2 µM)
SMILES: CCCCCc1ccc(-c2nc(C)c(/C(C)=N/NC(=N)N)s2)cc1 [Compound 1d]
- bactericidal effect in time-kill assay (MRSA (USA300)): bactericidal
- time to eliminate MRSA completely (reduce CFU to zero) (MRSA (USA300)): within two hours

- MIC (NRS107; [11]): 0.7 µg/mL
- MIC (MRSA USA1000): 3 µg/mL (≈ 8.07 µM)
- MIC (MRSA USA200): 1.5 µg/mL (≈ 4.04 µM)
- MIC (VRSA (VRS10); Table 2, VRSA): 3 µg/mL
- MIC (MRSA NRS384 (USA300); [6]): 3 µg/mL
- MIC (VISA LIM 3 (NRS37); [7]): 0.7 µg/mL
- MIC (MRSA USA500 (NRS385); [8]): 3 µg/mL
- MIC [4, 9]: 0.7 µg/mL
- MIC (MRSA USA100): 1.5 µg/mL (≈ 4.04 µM)
- MIC (MRSA USA700): 3 µg/mL (≈ 8.07 µM)
SMILES: CCCCCCCc1ccc(-c2nc(C)c(/C(C)=N/NC(=N)N)s2)cc1 [Compound 1e]
- toxicity toward murine macrophage cells [5]: exhibited toxicity; also recorded: toxic

- MIC (NRS108): 1.9 µg/mL (≈ 5.87 µM)
- MIC (NRS107; [11]): 1.9 µg/mL
- MIC (MRSA USA200): 1.9 µg/mL (≈ 5.87 µM)
- MIC (VRSA (VRS10); Table 2, VRSA): 0.5 µg/mL
- reduction in MIC compared to 1a against VRSA (VRSA (VRS10); VRSA): near three-fold reduction
- MIC (NRS194; [11]): 1.9 µg/mL
- MIC (MRSA USA500 (NRS385); [8]): 1.9 µg/mL
- MIC [4, 9]: 3.8 µg/mL
- MIC (VISA HIP07256 (NRS19); [10]): 1.9 µg/mL
- MIC (MRSA USA700): 1.9 µg/mL (≈ 5.87 µM)
SMILES: C/C(=N\NC(=N)N)c1sc(-c2ccc3ccccc3c2)nc1C [Compound 1h, 2-{1-[4-Methyl-2-(naphthalen-2-yl)thiazol-5-yl]ethylidene}hydrazinecarboximid-amide]
- toxicity toward murine macrophage cells [5]: exhibited toxicity
